Target: T1, RgpB (Porphyromonas gingivalis, UniProt P95493)
T1 construct: 0.02 nM RgpB, isolated from culture of Porphyromonas gingivalis; endogenous in cells
Experiment: RgpB inhibition, fluorogenic assay
Type: biochemical
Conditions: Activity (RgpB IC50), 0.02 nM RgpB, 10 μM Boc-Phe-Ser-Arg-MCA, 90 minutes, 37° C., pH=7.5
Description: The capacities of compounds of the present invention to inhibit the activity of RgpB were measured in a fluorogenic assay similar to those described in Barret Biochemical Journal. 1980, 187(3), 909. The specific assay conditions were as follows. Buffer: pH=7.5, 100 mM Tris-HCl, 75 mM NaCl, 2.5 mM CaCl2, 10 mM cysteine, 1% DMSO after all additions. Protein: 0.02 nM RgpB, isolated from culture of Porphyromonas gingivalis, as described in Pike et al. J. Biol. Chem. 1994, 269(1), 406, and Potempa and Nguyen. Current Protocols in Protein Scienc. 2007, 21.20.1-21.20.27. Fluorogenic substrate: 10 μM Boc-Phe-Ser-Arg-MCA. Time=90 minutes. Temperature=37° C. Each compound: 10 concentrations, starting at either 100 μM or 100 nM, with lower concentrations generated by serial 3-fold dilutions. By testing a range of concentrations for each compound, the concentration required to inhibit the activity of RgpB by 50% (the “IC50”) was determined.

T1 sequence (P95493 230-664): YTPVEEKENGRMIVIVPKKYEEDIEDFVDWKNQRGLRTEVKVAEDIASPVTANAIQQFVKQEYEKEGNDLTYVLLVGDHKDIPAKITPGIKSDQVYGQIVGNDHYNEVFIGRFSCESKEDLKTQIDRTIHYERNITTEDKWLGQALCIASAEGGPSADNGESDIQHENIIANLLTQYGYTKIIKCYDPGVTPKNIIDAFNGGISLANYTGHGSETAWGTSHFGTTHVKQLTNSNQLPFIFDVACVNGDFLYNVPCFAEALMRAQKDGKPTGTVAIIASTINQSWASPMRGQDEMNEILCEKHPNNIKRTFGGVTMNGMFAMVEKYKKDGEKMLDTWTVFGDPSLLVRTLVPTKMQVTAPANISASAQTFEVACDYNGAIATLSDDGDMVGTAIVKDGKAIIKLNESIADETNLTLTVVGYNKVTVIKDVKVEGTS

Structure (SMILES)	IC50 [nM]
N#CN1CCCC1c1ccc2c(N)nccc2c1 (centres unmarked) [Compound 45, 2-(1-aminoisoquinolin-6-yl)pyrrolidine-1-carbonitrile]	< 100
N#CN1CCCC1COc1ccnc(N)c1 (centres unmarked) [Compound 3, 2-(((2-aminopyridin-4-yl)oxy)methyl)pyrrolidine-1-carbonitrile]	100 to 1000
Nc1cc(CC(NC(=O)C2CCCC2)C(=O)COc2ccon2)ccn1 (centres unmarked) [Compound 70, N-(1-(2-aminopyridin-4-yl)-4-(isoxazol-3-yloxy)-3-oxobutan-2-yl)cyclopentanecarboxamide]	100 to 1000
CC(C)C(COc1ccnc(N)c1)N(C)C#N (centres unmarked) [Compound 34, N-(1-((2-aminopyridin-4-yl)oxy)-3-methylbutan-2-yl)-N-methylcyanamide]	1000 to 10000
COC(C)(C)C(=O)NC(Cc1ccc(N)nc1)C(=O)COc1c(F)cccc1F (centres unmarked) [Compound 58, N-(1-(6-aminopyridin-3-yl)-4-(2,6-difluorophenoxy)-3-oxobutan-2-yl)-2-methoxy-2-methylpropanamide]	100 to 1000
Nc1cc(CC(NC(=O)C2CCCC2)C(=O)COc2c(F)ccc(F)c2F)ccn1 (centres unmarked) [Compound 69, N-(1-(2-aminopyridin-4-yl)-3-oxo-4-(2,3,6-trifluorophenoxy)butan-2-yl)cyclopentanecarboxamide]	< 100
N#CN1CCC[C@H]1COc1ccnc(N)c1Cl [Compound 42, (S)-2-(((2-amino-3-chloropyridin-4-yl)oxy)methyl)pyrrolidine-1-carbonitrile]	10000 to 100000
CN(C#N)C(COc1ccnc(N)c1)c1ccccc1 (centres unmarked) [Compound 36, N-(2-((2-aminopyridin-4-yl)oxy)-1-phenylethyl)-N-methylcyanamide]	1000 to 10000
Nc1ccc(CC(NC(=O)C2CCCC2)C(=O)COc2ccon2)cn1 (centres unmarked) [Compound 68, N-(1-(6-aminopyridin-3-yl)-4-(isoxazol-3-yloxy)-3-oxobutan-2-yl)cyclopentanecarboxamide]	< 100
N#CN1CCC(COc2ccnc(N)c2)C1 (centres unmarked) [Compound 47, 3-(((2-aminopyridin-4-yl)oxy)methyl)pyrrolidine-1-carbonitrile]	1000 to 10000
CNc1nccc2cc([C@H]3CCCN3C#N)ccc12 [Compound 51b, (R)-2-(1-(methylamino)isoquinolin-6-yl)pyrrolidine-1-carbonitrile]	10000 to 100000
CCC(COc1ccnc(N)c1)N(C)C#N (centres unmarked) [Compound 35, N-(1-((2-aminopyridin-4-yl)oxy)butan-2-yl)-N-methylcyanamide]	1000 to 10000
N#CN1CCCC1CCOc1ccnc(N)c1 (centres unmarked) [Compound 16, 2-(2-((2-aminopyridin-4-yl)oxy)ethyl)pyrrolidine-1-carbonitrile]	10000 to 100000
CNc1cc(OCC2CCCN2C#N)ccn1 (centres unmarked) [Compound 22, 2-(((2-(methylamino)pyridin-4-yl)oxy)methyl)pyrrolidine-1-carbonitrile]	100 to 1000
COC(C)(C)C(=O)NC(Cc1ccc(N)nc1)C(=O)COc1c(F)ccc(F)c1F (centres unmarked) [Compound 62, N-(1-(6-aminopyridin-3-yl)-3-oxo-4-(2,3,6-trifluorophenoxy)butan-2-yl)-2-methoxy-2-methylpropanamide]	100 to 1000
Nc1cc(CCC(NC(=O)C2CCCC2)C(=O)COc2ccon2)ccn1 (centres unmarked) [Compound 71, N-(5-(2-aminopyridin-4-yl)-1-(isoxazol-3-yloxy)-2-oxopentan-3-yl)cyclopentanecarboxamide]	100 to 1000
N#CN1C[C@@H](O)C[C@@H]1c1ccc2c(N)nccc2c1 [Compound 50b, (2R,4S)-2-(1-aminoisoquinolin-6-yl)-4-hydroxypyrrolidine-1-carbonitrile]	< 100
N#CN1CCC[C@H]1COc1ccnc(N)c1 [Compound 19, (S)-2-(((2-aminopyridin-4-yl)oxy)methyl)pyrrolidine-1-carbonitrile]	< 100
N#CN(CCOc1ccnc(N)c1)C1CCCCC1 [Compound 40, N-(2-((2-aminopyridin-4-yl)oxy)ethyl)-N-cyclohexylcyanamide]	10000 to 100000
N#CN1c2ccccc2CC1COc1ccnc(N)c1 (centres unmarked) [Compound 24, 2-(((2-aminopyridin-4-yl)oxy)methyl)indoline-1-carbonitrile]	10000 to 100000
N#CN1CCCCC1c1ccc2c(N)nccc2c1 (centres unmarked) [Compound 37, 2-(1-aminoisoquinolin-6-yl)piperidine-1-carbonitrile]	100 to 1000
N#CN1C[C@@H](O)C[C@H]1c1ccc2c(N)nccc2c1 [Compound 50a, (2S,4S)-2-(1-aminoisoquinolin-6-yl)-4-hydroxypyrrolidine-1-carbonitrile]	< 100

Structure (SMILES)	IC50 [nM]
N#CN1CCC[C@@H]1COc1ccnc(N)c1 [Compound 20, (R)-2-(((2-aminopyridin-4-yl)oxy)methyl)pyrrolidine-1-carbonitrile]	1000 to 10000
CC(COc1ccnc(N)c1)N(C)C#N (centres unmarked) [Compound 14, N-(1-((2-aminopyridin-4-yl)oxy)propan-2-yl)-N-methylcyanamide]	100 to 1000
N#CN1CCC(Oc2ccnc(N)c2)CC1 [Compound 8, 4-((2-aminopyridin-4-yl)oxy)piperidine-1-carbonitrile]	> 100000
COC(C)(C)C(=O)NC(Cc1ccnc(N)c1)C(=O)COc1c(F)c(F)cc(F)c1F (centres unmarked) [Compound 65, N-(1-(2-aminopyridin-4-yl)-3-oxo-4-(2,3,5,6-tetrafluorophenoxy)butan-2-yl)-2-methoxy-2-methylpropanamide]	< 100
Nc1ccc(CC(NC(=O)C2CCCC2)C(=O)COc2c(F)c(F)cc(F)c2F)cn1 (centres unmarked) [Compound 53, N-(1-(6-aminopyridin-3-yl)-3-oxo-4-(2,3,5,6-tetrafluorophenoxy)butan-2-yl)cyclopentanecarboxamide]	< 100
N#CN1CCC[C@H]1/C=C/c1ccnc(N)c1 [Compound 32, (S,E)-2-(2-(2-aminopyridin-4-yl)vinyl)pyrrolidine-1-carbonitrile]	100 to 1000
CN(C#N)CCOc1ccnc(N)c1 [Compound 13, N-(2-((2-aminopyridin-4-yl)oxy)ethyl)-N-methylcyanamide]	100 to 1000
N#CN1CCCC1CCCOc1ccnc(N)c1 (centres unmarked) [Compound 18, 2-(3-((2-aminopyridin-4-yl)oxy)propyl)pyrrolidine-1-carbonitrile]	10000 to 100000
N#CN1CCC(Oc2ccnc(N)c2)C1 (centres unmarked) [Compound 2, 3-((2-aminopyridin-4-yl)oxy)pyrrolidine-1-carbonitrile]	100 to 1000
CC(C)N(C#N)CCCc1ccnc(N)c1 [Compound 6, N-(3-(2-aminopyridin-4-yl)propyl)-N-isopropylcyanamide]	10000 to 100000
Nc1ccc(C[C@H](NC(=O)C2CCCC2)C(=O)COc2c(F)c(F)cc(F)c2F)cn1 [Compound 56, (S)—N-(1-(6-aminopyridin-3-yl)-3-oxo-4-(2,3,5,6-tetrafluorophenoxy)butan-2-yl)cyclopentanecarboxamide]	< 100
Nc1ccc(CCC(NC(=O)C2CCCC2)C(=O)COc2ccon2)cn1 (centres unmarked) [Compound 74, N-(5-(6-aminopyridin-3-yl)-1-(isoxazol-3-yloxy)-2-oxopentan-3-yl)cyclopentanecarboxamide]	< 100
N#CN1CCC[C@H]1CSc1ccnc(N)c1 [Compound 28, (S)-2-(((2-aminopyridin-4-yl)thio)methyl)pyrrolidine-1-carbonitrile]	1000 to 10000
COC(C)(C)C(=O)NC(Cc1ccc(N)nc1)C(=O)COc1c(F)c(F)cc(F)c1F (centres unmarked) [Compound 60, N-(1-(6-aminopyridin-3-yl)-3-oxo-4-(2,3,5,6-tetrafluorophenoxy)butan-2-yl)-2-methoxy-2-methylpropanamide]	< 100
COC(C)(C)C(=O)NC(Cc1ccc(N)nc1)C(=O)COc1c(F)ccc(F)c1F (centres unmarked) [Compound 61, N-(1-(6-aminopyridin-3-yl)-3-oxo-4-(2,3,6-trifluorophenoxy)butan-2-yl)-2-methoxy-2-methylpropanamide]	< 100
N#CN1CCCCC1COc1ccnc(N)c1 (centres unmarked) [Compound 12, 2-(((2-aminopyridin-4-yl)oxy)methyl)piperidine-1-carbonitrile]	100 to 1000
CN(C#N)c1ccccc1Oc1ccnc(N)c1 [Compound 27, N-(2-((2-aminopyridin-4-yl)oxy)phenyl)-N-methylcyanamide]	> 100000
N#CN1CCCC1CCc1ccnc(N)c1 (centres unmarked) [Compound 21, 2-(2-(2-aminopyridin-4-yl)ethyl)pyrrolidine-1-carbonitrile]	100 to 1000
N#CN1C[C@H](O)C[C@@H]1c1ccc2c(N)nccc2c1 [Compound 49, (2R,4R)-2-(1-aminoisoquinolin-6-yl)-4-hydroxypyrrolidine-1-carbonitrile]	< 100
Nc1ccc(C[C@@H](NC(=O)C2CCCC2)C(=O)COc2c(F)c(F)cc(F)c2F)cn1 [Compound 57, (R)—N-(1-(6-aminopyridin-3-yl)-3-oxo-4-(2,3,5,6-tetrafluorophenoxy)butan-2-yl)cyclopentanecarboxamide]	< 100
CNc1nccc2cc([C@@H]3CCCN3C#N)ccc12 [Compound 51a, (S)-2-(1-(methylamino)isoquinolin-6-yl)pyrrolidine-1-carbonitrile]	10000 to 100000

Same assay, conditions: Activity (RgpB IC50), compound not tested above 1 μM; 0.02 nM RgpB, 10 μM Boc-Phe-Ser-Arg-MCA, 90 minutes, 37° C.

Structure (SMILES)	IC50 [nM]
CN(C)c1nccc2cc([C@H]3CCCN3C#N)ccc12 [Compound 52b, (R)-2-(1-(dimethylamino)isoquinolin-6-yl)pyrrolidine-1-carbonitrile]	> 1000

Reference: patent US11059786B2, “Aminopyridine compounds and methods for the preparation and use thereof” (Cortexyme, Inc., priority 2017, dated 2021)
